Earlier results on 1 compound are cited in patent US8394592B2, “Methods for assessing cancer susceptibility to carcinogens in tobacco products” (The Board of Regents of the University of Texas System, priority 2006, dated 2013).

The structures appear in SMILES notation.

Data set [1] deals with rats. Conditions: cited from earlier work.
The subject of data set [2] is Swiss mice. Conditions: micronucleus test in Swiss mice; cited from earlier work.

Consider `CN(CCCC(=O)c1cccnc1)N=O` [NNK, 4-(methylnitrosamino)-1-(3-pyridyl)-1-butanone], for which the “lowest dose shown to induce lung tumors” value in data set [1] is 1.8 mg. In addition, the mutagenicity entry in data set [2] is reported as “potent mutagen”.
